Consider one compound from patent publication US12528805B2, “Solid forms of emetine” (Acer Therapeutics, Inc., priority 2020, dated 2026).

The data set can be described thus: Solubility screening by solvent addition technique (approximate solubility). Format: physicochemical. The following applies: thermodynamic from solid, stirred at 50° C. Here is the method:
Approximate solubility values for amorphous Compound I dihydrochloride in 24 solvent systems was estimated by a solvent addition technique (Table 5).
The following procedure was used for the study: • Approximately 20 mg of material was weighed out into 24×2 mL push-cap vials. • Each solvent/solvent mixture was added to the appropriate vial in 5 volume aliquots (100 μL) until either no more solvent could be added or until the material dissolved. • In between additions, the experiments were stirred at 50° C. • If 2000 μL of solvent was added without dissolution of the material, solubility was calculated to be below this point. • Experiments were stirred at 50° C. for 1.5-5 h and then cooled at 0.1° C./min to 5° C. and stirred at 5° C. for about 10 h. • Solids (residual and recrystallized) were isolated by centrifugation (0.22 μm nylon filter) and analyzed by XRPD. • Anti-solvent addition (ASA) at 20° C. was carried out on solutions, followed by temperature cycling between 50° C.-5° C. (1 h hold, 0.1° C./min cool, 0.25° C./min ramp) for 20 h. • ASA at 5° C. was carried out on experiments which remained solutions, which were then stirred at 5° C. for 3 h. • Solids were isolated by centrifugation (0.22 μm nylon filter) and analyzed by XRPD; experiments which remained solutions were evaporated at ambient temperature (about 20° C.) under vacuum. • All isolated material was dried under vacuum at about 30° C. for about 19-23 h then re-analyzed by XRPD.
For comparison purposes, the approximate solubility of Compound I dihydrochloride Form 1 was estimated in water, using the same procedure, in solubility screening Experiment 25.

SMILES strings stand for the structures. Counter-ions that a name gives are not always drawn.

One may read the solubility as the dissolved amount per volume that the medium holds.

As for `CC[C@H]1CN2CCc3cc(OC)c(OC)cc3[C@@H]2C[C@@H]1C[C@H]1NCCc2cc(OC)c(OC)cc21` [Amorphous Compound I dihydrochloride], the solubility runs as follows: (aqueous with cosolvent or surfactant or cyclodextrin, acetone:water 50:50 v/v) over 200 mg/mL; (aqueous with cosolvent or surfactant or cyclodextrin, ethanol:water 25:75 v/v) over 200 mg/mL; (aqueous with cosolvent or surfactant or cyclodextrin, methanol:water 50:50 v/v) over 200 mg/mL; (organic solvent or mixture, 1-propanol) over 200 mg/mL; (organic solvent or mixture, 2-methyl THF) under 10 mg/mL; (organic solvent or mixture, 2-propanol) over 200 mg/mL. Further, the solubility reads like this: (organic solvent or mixture, 2-propanol:water 95:5 v/v) over 200 mg/mL; (organic solvent or mixture, N-methyl-2-pyrrolidone) over 200 mg/mL; (organic solvent or mixture, THF) under 10 mg/mL; (organic solvent or mixture, acetone) under 10 mg/mL; (organic solvent or mixture, anisole) under 10 mg/mL; (organic solvent or mixture, dimethylformamide) over 200 mg/mL. Further, the solubility by setting is: (organic solvent or mixture, dimethylsulfoxide) over 200 mg/mL; (organic solvent or mixture, ethanol) over 200 mg/mL; (organic solvent or mixture, ethanol:water 90:10 v/v) over 200 mg/mL; (organic solvent or mixture, ethyl acetate) under 10 mg/mL; (organic solvent or mixture, heptane) under 10 mg/mL; (organic solvent or mixture, isopropyl acetate) under 10 mg/mL. Further, the solubility by setting is: (organic solvent or mixture, methanol) over 200 mg/mL; (organic solvent or mixture, methylethyl ketone) under 10 mg/mL; (organic solvent or mixture, methylisobutyl ketone) under 10 mg/mL; (organic solvent or mixture, tBME) under 10 mg/mL; (organic solvent or mixture, toluene) under 10 mg/mL; (water) over 200 mg/mL.
